In ChEMBL document CHEMBL1145313, “Identification of potent and highly selective chiral tri-amine and tetra-amine mu opioid receptors ligands: an example of lead optimization using mixture-based libraries” (Bioorg Med Chem Lett, 2006):

Columns and labels:
Mu-type opioid receptor [1] = biological target: Mu-type opioid receptor (Cavia porcellus, UniProt P97266); assay: Antagonist activity against mu opioid receptor in guinea-pig ileum assay; type: functional, tissue-based
Mu-type opioid receptor [2] = biological target: Mu-type opioid receptor (Rattus norvegicus, UniProt P33535); assay: Displacement of [3H]DAMGO from mu opioid receptor in rat brain homogenate; type: tissue-based
Chain of Mu-type opioid receptor (Rattus norvegicus, UniProt P33535) (P33535 whole entry): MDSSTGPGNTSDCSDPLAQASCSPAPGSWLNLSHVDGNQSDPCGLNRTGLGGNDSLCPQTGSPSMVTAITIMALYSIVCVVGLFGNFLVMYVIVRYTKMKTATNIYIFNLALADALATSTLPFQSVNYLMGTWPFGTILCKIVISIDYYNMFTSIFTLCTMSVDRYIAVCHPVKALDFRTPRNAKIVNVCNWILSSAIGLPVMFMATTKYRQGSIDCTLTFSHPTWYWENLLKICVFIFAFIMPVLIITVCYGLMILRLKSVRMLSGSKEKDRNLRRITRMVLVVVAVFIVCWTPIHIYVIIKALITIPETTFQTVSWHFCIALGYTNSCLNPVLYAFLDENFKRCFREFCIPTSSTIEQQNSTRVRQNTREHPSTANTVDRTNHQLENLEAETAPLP

[3] = biological target: Kappa-type opioid receptor (Homo sapiens, UniProt P41145); assay: Displacement of [3H]U-69593 from kappa opioid receptor
Chain of Kappa-type opioid receptor (P41145 whole entry): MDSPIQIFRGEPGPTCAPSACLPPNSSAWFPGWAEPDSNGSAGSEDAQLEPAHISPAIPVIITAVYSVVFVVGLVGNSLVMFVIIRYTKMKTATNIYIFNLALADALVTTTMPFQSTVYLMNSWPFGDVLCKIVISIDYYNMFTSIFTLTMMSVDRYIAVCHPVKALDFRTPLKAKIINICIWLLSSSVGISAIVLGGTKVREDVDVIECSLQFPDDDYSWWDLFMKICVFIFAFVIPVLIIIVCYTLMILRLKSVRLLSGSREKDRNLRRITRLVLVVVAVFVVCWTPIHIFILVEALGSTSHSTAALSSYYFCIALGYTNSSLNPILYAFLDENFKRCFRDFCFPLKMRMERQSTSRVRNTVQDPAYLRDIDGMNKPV

[4] = biological target: Delta-type opioid receptor (Homo sapiens, UniProt P41143); assay: Displacement of [3H]DPDE from delta opioid receptor
Chain of Delta-type opioid receptor (P41143 whole entry): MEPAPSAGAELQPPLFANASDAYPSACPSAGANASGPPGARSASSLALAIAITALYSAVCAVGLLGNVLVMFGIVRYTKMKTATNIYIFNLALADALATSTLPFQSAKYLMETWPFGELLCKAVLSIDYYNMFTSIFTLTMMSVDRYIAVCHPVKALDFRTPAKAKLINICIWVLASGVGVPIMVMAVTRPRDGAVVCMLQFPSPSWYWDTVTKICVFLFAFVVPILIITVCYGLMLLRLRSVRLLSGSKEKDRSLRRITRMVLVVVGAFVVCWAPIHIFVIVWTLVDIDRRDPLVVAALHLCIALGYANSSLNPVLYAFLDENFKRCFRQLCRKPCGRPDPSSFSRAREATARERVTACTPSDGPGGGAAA

[5] = biological target: Mu-type opioid receptor (Cavia porcellus) (UniProt P97266); assay: Activity at mu opioid receptor in guinea-pig ileum assay; type: functional, tissue-based; settings: filed as antagonist
Chain of Mu-type opioid receptor (Cavia porcellus) (P97266 whole entry): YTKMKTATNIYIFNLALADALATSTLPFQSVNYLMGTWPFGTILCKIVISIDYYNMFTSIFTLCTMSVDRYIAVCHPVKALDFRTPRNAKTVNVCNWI

Chain of Mu-type opioid receptor (Cavia porcellus, UniProt P97266) (P97266 whole entry): as above

`CNC[C@@H]1CCCN1C[C@H](Cc1ccccc1)N(C)C[C@H](Cc1ccc(O)cc1)N(C)C[C@H](Cc1ccc(O)cc1)NC` gave an IC50 (Mu-type opioid receptor [1]) of 0.002 µM.

`CNC[C@H](Cc1ccc(O)cc1)N(Cc1ccccc1)C[C@H](Cc1ccc(O)cc1)N(C)C` gave an IC50 (Mu-type opioid receptor [2]) of 1.28 µM, an IC50 [3] of 10.6 µM and an IC50 [4] of 56.7 µM.

`CNC[C@H](Cc1ccccc1)N(C)C[C@@H](Cc1ccc(O)cc1)N(C)C[C@@H](Cc1ccc(O)cc1)N(C)C` was tested, and the IC50 (Mu-type opioid receptor [2]) was 1.5 µM, the Activity [5] was “Antagonist” and the IC50 [3] was 6.06 µM. The IC50 [4] was 17.8 µM.

With `CNC[C@@H](Cc1ccccc1)N(C)C[C@H](Cc1ccc(O)cc1)N(C)C[C@@H](Cc1ccc(O)cc1)N(C)C` the IC50 (Mu-type opioid receptor [2]) was 0.958 µM, the Activity [5] was “Antagonist” and the IC50 [3] was 15.6 µM. It also gave an IC50 [4] of 11.3 µM.

Work on `CN[C@@H](Cc1ccc(O)cc1)CN(C)[C@H](CNCc1ccccc1)Cc1ccc(O)cc1` yielded an IC50 [3] of 3.85 µM and an IC50 [4] of 3.97 µM.

With `CNC[C@H](Cc1ccc(O)cc1)N(Cc1ccccc1)C[C@@H](N)Cc1ccc(O)cc1` the IC50 (Mu-type opioid receptor [2]) was 0.882 µM, the IC50 [3] was 14.4 µM and the IC50 [4] was 35.6 µM.

In the case of `CNC[C@H](Cc1ccccc1)N(C)C[C@H](Cc1ccc(O)cc1)N(C)C[C@@H](Cc1ccc(O)cc1)N(C)C`, the IC50 (Mu-type opioid receptor [2]) is reported as 0.662 µM, the Activity [5] is reported as “Antagonist” and the IC50 [3] is reported as 10.5 µM. For the same compound, the IC50 [4] was 9.05 µM.

`CNC[C@H](Cc1ccccc1)N(C)C[C@@H](Cc1ccc(O)cc1)N(C)C[C@@H](N)Cc1ccc(O)cc1` was tested, and the IC50 (Mu-type opioid receptor [2]) was 0.339 µM, the Activity [5] was “Antagonist” and the IC50 [3] was 22.5 µM. The IC50 [4] was 48.2 µM.

Work on `CN(C[C@@H](N)Cc1ccc(O)cc1)[C@H](CNCc1ccccc1)Cc1ccc(O)cc1` yielded an IC50 (Mu-type opioid receptor [2]) of 0.01 µM, an IC50 [3] of 4.14 µM and an IC50 [4] of 10.2 µM.

With `N[C@@H](Cc1ccc(O)cc1)CN(Cc1ccccc1)[C@@H](Cc1ccc(O)cc1)CN(Cc1ccccc1)[C@@H](Cc1ccccc1)CN1CCC[C@H]1CNCc1ccccc1` the IC50 (Mu-type opioid receptor [1]) was 4.46 µM.

Compound `CN[C@H](CN[C@H](CN)Cc1ccc(O)cc1)Cc1ccc(O)cc1` has an IC50 (Mu-type opioid receptor [2]) of 0.111 µM, an IC50 [3] of 9.67 µM and an IC50 [4] of 10.9 µM.

`CN(C)[C@H](CN[C@H](CN)Cc1ccc(O)cc1)Cc1ccc(O)cc1` gave an IC50 (Mu-type opioid receptor [2]) of 0.262 µM, an IC50 [3] of 22.6 µM and an IC50 [4] of 17.9 µM.

For `CNC[C@@H](Cc1ccccc1)N(C)C[C@@H](Cc1ccc(O)cc1)N(C)C[C@@H](Cc1ccc(O)cc1)N(C)C`, the IC50 (Mu-type opioid receptor [2]) was 0.835 µM, the Activity [5] was “Antagonist” and the IC50 [3] was 8.76 µM. It also gave an IC50 [4] of 4.97 µM.

In the case of `CNC[C@H](Cc1ccc(O)cc1)N(Cc1ccccc1)C[C@H](Cc1ccc(O)cc1)NC`, the IC50 (Mu-type opioid receptor [2]) is reported as 1.21 µM, the IC50 [3] is reported as 11.1 µM and the IC50 [4] is reported as 10.2 µM.

Work on `CNC[C@@H]1CCCN1C[C@H](Cc1ccccc1)N(C)C[C@H](Cc1ccc(O)cc1)N(C)C[C@H](Cc1ccc(O)cc1)N(C)C` yielded an IC50 (Mu-type opioid receptor [1]) of 0.008 µM.

For `N[C@@H](Cc1ccc(O)cc1)CN(Cc1ccc2ccccc2c1)[C@@H](Cc1ccc(O)cc1)CN(Cc1ccc2ccccc2c1)[C@@H](Cc1ccccc1)CN1CCC[C@H]1CNCc1ccc2ccccc2c1`, the IC50 (Mu-type opioid receptor [1]) was 18.6 µM.

For `CNC[C@@H](Cc1ccccc1)N(C)C[C@H](Cc1ccc(O)cc1)N(C)C[C@@H](N)Cc1ccc(O)cc1`, the IC50 (Mu-type opioid receptor [2]) was 0.037 µM, the Activity [5] was “Antagonist” and the IC50 [3] was 1.45 µM. For the same compound, the IC50 [4] was 8.53 µM.

For `CN(C)[C@@H](Cc1ccc(O)cc1)CN(C)[C@H](CNCc1ccccc1)Cc1ccc(O)cc1`, the IC50 (Mu-type opioid receptor [2]) was 0.038 µM, the IC50 [3] was 2.36 µM and the IC50 [4] was 8.26 µM.

For `NC[C@H](Cc1ccc(O)cc1)NC[C@@H](N)Cc1ccc(O)cc1`, the IC50 (Mu-type opioid receptor [2]) was 6.04 µM and the IC50 [3] was 32.2 µM.

In the case of `CNC[C@@H](Cc1ccccc1)N(C)C[C@@H](Cc1ccc(O)cc1)N(C)C[C@H](Cc1ccc(O)cc1)N(C)C`, the IC50 (Mu-type opioid receptor [2]) is reported as 0.876 µM, the Activity [5] is reported as “Antagonist” and the IC50 [3] is reported as 22.4 µM. The IC50 [4] was 17 µM.

`CNC[C@@H]1CCCN1C[C@H](Cc1ccccc1)N(C)C[C@H](Cc1ccc(O)cc1)N(C)C[C@@H](N)Cc1ccc(O)cc1` was tested, and the IC50 (Mu-type opioid receptor [1]) was 0.013 µM and the Activity [5] was “Antagonist”.

`CNC[C@H](Cc1ccccc1)N(C)C[C@H](Cc1ccc(O)cc1)N(C)C[C@H](Cc1ccc(O)cc1)N(C)C` was tested, and the IC50 (Mu-type opioid receptor [2]) was 0.0005 µM, the Activity [5] was “Antagonist” and the IC50 [3] was 1.05 µM. For the same compound, the IC50 [4] was 4.89 µM.

For `CCN[C@H](CN[C@H](CN[C@@H](Cc1ccc(O)cc1)CN1CCC[C@H]1CN[C@H](CN[C@H](CN)Cc1ccc(O)cc1)Cc1ccc(O)cc1)Cc1ccc(O)cc1)Cc1ccc(O)cc1`, the IC50 (Mu-type opioid receptor [2]) was 0.087 µM.

`CCN[C@H](CN[C@H](CN[C@H](CN[C@H](CN[C@@H](CN[C@H](CN)CCSC)[C@@H](C)O)Cc1ccccc1)Cc1ccc(O)cc1)Cc1ccc(O)cc1)Cc1ccc(O)cc1` showed an IC50 (Mu-type opioid receptor [2]) of 0.181 µM.

`CCN[C@H](CN[C@H](CN[C@H](CN[C@H](CN[C@H](CN[C@H](CN)CCSC)Cc1ccc(O)cc1)Cc1ccccc1)Cc1ccc(O)cc1)Cc1ccc(O)cc1)Cc1ccc(O)cc1` gave an IC50 (Mu-type opioid receptor [2]) of 0.26 µM.

`CCN[C@H](CN[C@H](CN[C@H](CN[C@H](CN[C@@H](CN[C@H](CN)CCSC)[C@@H](C)O)Cc1ccccc1)Cc1ccccc1)Cc1ccc(O)cc1)Cc1ccc(O)cc1` showed an IC50 (Mu-type opioid receptor [2]) of 0.115 µM.

`CCN[C@H](CN[C@H](CN[C@H](CN[C@H](CN[C@H](CN)Cc1ccc(O)cc1)Cc1ccc(O)cc1)Cc1ccc(O)cc1)Cc1ccc(O)cc1)Cc1ccc(O)cc1` was tested, and the IC50 (Mu-type opioid receptor [2]) was 0.146 µM.

In the case of `CCN[C@H](CN[C@H](CN[C@@H](Cc1ccc(O)cc1)CN1CCC[C@H]1CN[C@H](CN[C@H](CN)Cc1ccccc1)Cc1ccc(O)cc1)Cc1ccc(O)cc1)Cc1ccc(O)cc1`, the IC50 (Mu-type opioid receptor [2]) is reported as 0.083 µM.

`NC[C@@H]1CCCN1C[C@H](Cc1ccccc1)NC[C@H](Cc1ccc(O)cc1)NC[C@@H](N)Cc1ccc(O)cc1` gave an IC50 (Mu-type opioid receptor [1]) of 0.006 µM.

Work on `CCN[C@H](CN[C@H](CN[C@@H](Cc1ccccc1)CN1CCC[C@H]1CN[C@H](CN)Cc1ccc(O)cc1)Cc1ccc(O)cc1)Cc1ccc(O)cc1` yielded an IC50 (Mu-type opioid receptor [2]) of 0.024 µM.

`CCN[C@H](CN[C@H](CN[C@@H](Cc1ccccc1)CN1CCC[C@H]1CN[C@@H](CN[C@H](CN)CCSC)[C@@H](C)O)Cc1ccc(O)cc1)Cc1ccc(O)cc1` showed an IC50 (Mu-type opioid receptor [2]) of 0.014 µM.

`CCN[C@H](CN[C@H](CN[C@H](CN[C@H](CN)Cc1ccc(O)cc1)Cc1ccc(O)cc1)Cc1ccc(O)cc1)Cc1ccc(O)cc1` showed an IC50 (Mu-type opioid receptor [2]) of 0.096 µM.

`CCNC[C@@H]1CCCN1C[C@H](Cc1ccccc1)N(CC)C[C@H](Cc1ccc(O)cc1)N(CC)C[C@@H](N)Cc1ccc(O)cc1` gave an IC50 (Mu-type opioid receptor [1]) of 0.045 µM.
